Holding throughout (assay type): cell-based, human
Experiment [1] concerns KANK1 at the cell edge of HeLa cells. Put plainly: Peripheral clustering of KANK1. As to the method: (§1) HeLa Kyoto cell line was described previously ([Lansbergen et al., 2006]; [Mimori-Kiyosue et al., 2005]). HEK293T cells were purchased from ATCC; culture and transfection of DNA and siRNA into these cell lines was performed as previously described ([van der Vaart et al., 2013]). HaCaT cells were purchased at Cell Line Service (Eppelheim, Germany) and cultured according to manufacturer’s instructions. The cell lines were routinely checked for mycoplasma contamination using LT07-518 Mycoalert assay (Lonza, Switzerland).The identity of the cell lines was monitored by immunofluorescence-staining-based analysis with multiple markers. Blebbistatin was purchased from Enzo Life Sciences and used at 50 μM. Serum starvation in HeLa cells was done for 48 hr and focal adhesion assembly was stimulated by incubation with fetal calf serum-containing medium with or without blebbistatin for 2 hr. ROCK1 inhibitor Y-27632 was purchased at Sigma-Aldrich and used at 1 or 10 μM. Double stable HeLa cell line expressing GFP-KANK1 and TagRFP-paxillin was made by viral infection. We used a pLVIN-TagRFP-paxillin-based lentivirus and a pQC-GFP-KANK1-based retrovirus packaged in HEK293T cells using respectively Lenti-X HTX packaging and pCL-Ampho vectors. Antibiotic selection was applied to cells 48 hr after infection using 500 μg/ml G418 (Geneticin, Life Technologies) and 1 μg/ml puromycin (InvivoGen).
Antibodies against HA and GFP tags, and liprin β1 used for Western blot analysis were previously described ([van der Vaart et al., 2013]). Rabbit antibodies against KANK1 (HPA005539) and KANK2 (HPA015643) were purchased at Sigma-Aldrich. Western blot analysis of KANK1 was performed using rabbit polyclonal KANK1 antibody (A301-882A) purchased at Bethyl Laboratories. Talin immunofluorescence staining was performed using mouse monoclonal 8d4 antibody (Sigma-Aldrich). Western blot analysis of talin 1 and 2 expression was performed using respectively the isotype specific mouse monoclonal 97H6 (Sigma-Aldrich) and 68E7 (Abcam) antibodies. Ku80 (7/Ku80) antibody was purchased from BD Biosciences. Immunofluorescence staining of KANK1, LL5β, liprin β1, KIF21A and CLASP2 in HeLa and HaCaT cells was performed using the antibodies and procedures previously described ([Lansbergen et al., 2006]; [van der Vaart et al., 2013]). F-actin was stained using Alexa Fluor 594-conjugated phalloidin (Life Technologies). Phospho-tyrosine mouse antibody (PT-66) was purchased from Sigma-Aldrich and rabbit FAK phospho-tyrosine 397 was purchased from Biosource.
Fixed samples and corresponding immunofluorescence images were acquired using widefield fluorescence illumination on a Nikon Eclipse 80i or Ni upright microscope equipped with a CoolSNAP HQ2 CCD camera (Photometrics) or a DS-Qi2 camera (Nikon) an Intensilight C-HGFI precentered fiber illuminator (Nikon), ET-DAPI, ET-EGFP and ET-mCherry filters (Chroma), Nikon NIS Br software, Plan Apo VC 100x NA 1.4 oil, Plan Apo Lambda 100X oil NA 1.45 and Plan Apo VC 60x NA 1.4 oil (Nikon) objectives. TIRFM-based live cell imaging was performed using the setup described before ([van der Vaart et al., 2013]) or a similar Nikon Ti microscope-based Ilas^2 system (Roper Scientific, Evry, FRANCE) equipped with dual laser illuminator for azimuthal spinning TIRF (or Hilo) illumination, 150 mW 488 nm laser and 100 mW 561 nm laser, 49,002 and 49,008 Chroma filter sets, EMCCD Evolve mono FW DELTA 512x512 camera (Roper Scientific) with the intermediate lens 2.5X (Nikon C mount adapter 2.5X), CCD camera CoolSNAP MYO M-USB-14-AC (Roper Scientific) and controlled with MetaMorph 7.8.8 software (Molecular Devices). Simultaneous imaging of […] was performed as described before ([van der Vaart et al., 2013]) or using the Optosplit III image splitter device (Andor) on the Ilas^2 system.
For presentation, images were adjusted for brightness and processed by Gaussian blur and Unsharp mask filter using ImageJ 1.47v (NIH). […]

Experiment [2] has as its system KIF21A at the cell edge of HeLa cells. Put plainly: Peripheral clustering of KIF21A. The settings on record: talin1/2-depleted HeLa rescue (Fig 4G); mean, n = 12, SEM 3.66709. As to the method: as §1, with “ROCK1 inhibitor Y-27632 was purchased at Sigma-Aldrich and used at 1 or 10 μM. Double stable HeLa cell line expressing GFP-KANK1 and TagRFP-paxillin was made by viral infection. We used a pLVIN-TagRFP-paxillin-based lentivirus and a pQC-GFP-KANK1-based retrovirus packaged in HEK293T cells using respectively Lenti-X HTX packaging and pCL-Ampho vectors. Antibiotic selection was applied to cells 48 hr after infection using 500 μg/ml G418 (Geneticin, Life Technologies) and 1 μg/ml puromycin (InvivoGen).” left out
Fixed samples and corresponding immunofluorescence images were acquired using widefield fluorescence illumination on a Nikon Eclipse 80i or Ni upright microscope equipped with a CoolSNAP HQ2 CCD camera (Photometrics) or a DS-Qi2 camera (Nikon) an Intensilight C-HGFI precentered fiber illuminator (Nikon), ET-DAPI, ET-EGFP and ET-mCherry filters (Chroma), Nikon NIS Br software, Plan Apo VC 100x NA 1.4 oil, Plan Apo Lambda 100X oil NA 1.45 and Plan Apo VC 60x NA 1.4 oil (Nikon) objectives. […]

Experiment [3] relates to focal adhesions in HeLa cells. In words: FA number. As to the method: as §1
(§2) For presentation, images were adjusted for brightness and processed by Gaussian blur and Unsharp mask filter using ImageJ 1.47v (NIH). Fluorescence profiles are values measured by line scan analysis in ImageJ, normalized by background average fluorescence, expressed as a factor of the baseline value obtained for individual channel and plotted as a function of maximum length factor of the selection line (distance ratio). Protein clustering at the cell edge is the ratio of the total fluorescence in the first 5 μm from the cell edge to the next 5 μm measured by line scan analysis in ImageJ after thresholding for cell outline marking and out-of-cell region value assigned to zero. The results were plotted as percentage of control condition average value. FA counting and area measurement was performed using Analyze Particles under ImageJ on focal adhesion binary mask obtained after Gaussian blur/threshold-based cell outline marking and background subtraction (rolling ball radius, 10 pixels). KANK1/talin colocalization was analyzed using Pearson R value provided by Colocalization Analysis plugin under FiJi-ImageJ and a 3 μm diameter circular ROI centered on talin clusters detected by immunofluorescent staining.

For the next experiment, the system named is HeLa cells. Put plainly: Cell area, attachment and spreading. The arrangement: AV Cell Area: unit not given here. As to the method:
as §1, §2

The subject of experiment [4] is microtubule plus ends in HeLa cells. In words: Angles of microtubule growth relative to the cell margin. The conditions noted are these: talin1/2-depleted HeLa. As to the method: nEB3-mRFP dynamics was recorded by 0.5 s interval time lapse TIRF imaging. Microtubule growth was measured using kymographs obtained from EB3-mRFP time lapse image series, plotted and presented as previously described ([van der Vaart et al., 2013]). Ratio of microtubule growth in cell center to periphery was obtained as values for individual cells. Microtubule growth trajectory angle to the cell edge was manually measured in ImageJ using tracks obtained by maximum intensity projection of EB3-mRFP image series.

On to “GFP-talin1-G1404L: GFP-tagged mouse talin1 with single point mutation G1404L”, for which, in experiment [1] (talin1/2-depleted HeLa rescued with GFP-talin1 (Fig 3F), mean, n = 12), the “Peripheral clustering of KANK1, edge ratio, AV” value was determined as 0.9974. Also, the “KANK1 distribution, talin rescue (in words)” value in experiment [1] (talin1/2-depleted HeLa, Figure 3E,F) is “dispersed over the plasma membrane”. Further, the “Peripheral clustering of KIF21A, percentage of control, AV, talin rescue” value in experiment [2] is 41.905 percentage of control condition average value. In addition, the “AV #FA” value in experiment [3] (HeLa, TLN1-KD, mTLN1 rescue, mean FA number per cell, Count 12) is 55.3333. Moreover, in experiment [3] (compared to rescue with wild type talin1), the “number and size of focal adhesions (in words)” value is recorded as “not significantly different”. In addition, in the experiment with HeLa cells (HeLa, TLN1-KD, mTLN1 rescue, mean, Count 13), the “AV Cell Area” value turned out to be 1671.82. Besides, in the experiment with HeLa cells (compared to rescue with wild type GFP-talin1), the “cell area (in words)” value is given as “slightly increased compared to cells rescued with the wild type GFP-talin1”. Further, in the experiment with HeLa cells (talin1/2-depleted HeLa), the “cell attachment and spreading (in words)” value was “could fully support cell attachment and spreading”. The “proportion of microtubules growing parallel to the cell edge (in words)” value in experiment [4] is given as “greatly increased”.

The values above are taken from paper PMC4995097, “Talin-KANK1 interaction controls the recruitment of cortical microtubule stabilizing complexes to focal adhesions” (eLife, 2016).
